From US11578058B2, “Heterocyclic compounds for inhibiting TYK2 activities” (Beijing InnoCare Pharma Tech Co., Ltd., priority 2020, dated 2023)

What was measured:
[1] = test system: IL-12-induced IFN-γ secretion in NK92 cells; experiment: Inhibition of IL-12-induced IFN-γ secretion in NK92 cells (ELISA); assay type: cell-based; conditions: Homo sapiens, IL-12, 24 hours, read-out: IC50 (NK92_IL12/IFN-γ)
Procedure: The effect of the compounds of the present invention on IFN-γ secretion induced by TYK2 in NK92 cells is evaluated by an enzyme-linked immunosorbent assay (ELISA) (Table 2).
IL-12 receptor is mainly expressed in activated T-cells, NK cells (NK92 is a NK cell line), DC cells, and B-cells. When binding to IL-12, it activates JAK2/TYK2 signal transduction pathway within NK cells and T lymphocytes, thereby inducing secretion of IFN-γ.
The experimental method is generally described below:
The 96-well plate is then incubated overnight in a 37° C./5% CO2 incubator.
The plate is centrifuged at 800 rpm for 10 minutes at room temperature and 50 μL of the supernatant from each well is transferred to another 96-well plate (Sigma, Cat No. CLS3695) coated with anti-IFN-γ antibody. The amount of IFN-γ secretion is detected following the instruction from the Human IFN-gamma DuoSet ELISA kit (R & D Systems, Cat No. DY285B). […] The percentage of inhibition on IL-12 induced IFN-γ secretion in NK-92 cells by the test compound is calculated using the following formula: […]
The IC50 value of the test compound is calculated from 8 concentration points using the XLfit software (ID Business Solutions Ltd., UK) by the following formula: […]
Where Y is the percentage of inhibition, X is the logarithm of the concentration of the test compound, Bottom is the bottom plateau value of the S-shaped curve, Top is the top plateau value of the S-shaped curve, and slope factor is the slope coefficient of the curve.

[2] = In vivo rat PK determination; set-up: species or system Sprague Dawley rats; conditions: for F: PO (5 mpk) vs IV (1 mpk); for AUClast / Cmax: PO (5 mpk), n = 3
Procedure: The pharmacokinetics of Compound 3 of the present invention and the reference compound BMS-986165 were evaluated. Compound 3 has an OCD3 on a benzene ring, whereas the reference compound has an CD3 on an amide moiety. Methyl group is typically labile in vivo, subject to hydrolysis by amidase in the case of methylamide and to oxidative demethylation by CYPs in the case of methoxy and methyltriazole. Substituting methyl with tri-deuterated methyl improves the bioavailability and in vivo exposure of the compound and provides a better efficacy of the compound under the same dose.
Compound 3 and the reference compound in a 0.5 mg/mL solution containing 5% N,N-dimethylacetamide+20% solutol+75% saline were orally administered to three male Sprague Dawley rats at a dose of 5 mg/kg. Blood samples were collected at 0.25, 0.5, 1, 2, 4, 8 and 24 hours after administration. The concentrations of the compound in the plasma were quantified by LC-MS/MS using an API-4500 mass spectrometer. The limit of quantification (LOQ) of analysis was 1 ng/mL. The pharmacokinetic (PK) parameters were calculated by the non-compartmental method using WinNonlin and are present in Table 3.

[3] = test system: anti-CD40 antibody-induced colitis; experiment: Anti-CD40 antibody-induced colitis animal model; assay type: in vivo, CB17-Scid mice; conditions: for Spleen weight, Mean: Day 8; for protection from colitis (body weight loss and spleen enlargement) versus vehicle group: Compound 3 at 1.5, 5 and 15 mg/kg, reference compound at 5 mg/kg, oral twice daily; for body weight loss after treatment in anti-CD40 colitis (IBD) model: mice
Procedure: The female CB17-Scid mice (8-10 weeks old, 18-20 g) from Beijing Vital River laboratory were randomly divided into 5 groups (n=8 per group). On Day 0, colitis was induced in mice each with a single intraperitoneal injection of 100 μg of FGK4.5 anti-CD40 mAb (BioXCell, Cat. No. EB0016-2) in PBS. […] On a daily basis, mice were weighed and monitored for signs of colitis including body weight loss and the accompanying loose stools and diarrhea. On Day 8, all animals were euthanized. Spleen tissues were collected and weighed.

[4] = In vivo rat PK determination; set-up: species or system Sprague Dawley rats; conditions: IV (1 mpk); for CL / Vss: n = 3; for T1/2: n = 3 (header span assumed)

Compound: [2H]C([2H])([2H])Oc1c(Nc2cc(NC(=O)C3CC3)nnc2C(=O)NC)cccc1-c1ncn(C)n1 [Compound 3, 6-(cyclopropanecarboxamido)-4-((2-(methoxy-d3)-3-(1-methyl-1H-1,2,4-triazol-3-yl)phenyl)amino)-N-methylpyridazine-3-carboxamide]
- IC50 [1]: 14 nM
- F [2]: 92%
- AUClast [2]: 6560 ng·h/mL
- Cmax [2]: 971 ng/mL
- in vivo exposure compared with reference compound ([2]; oral 5 mg/kg): better in vivo exposures than the reference compound
- Spleen weight, Mean ([3]; 1.5 mg/kg oral twice daily): 0.060 g
- Spleen weight, Mean ([3]; 5 mg/kg oral twice daily): 0.037 g
- Spleen weight, Mean ([3]; 15 mg/kg oral twice daily): 0.025 g
- protection from colitis (body weight loss and spleen enlargement) versus vehicle group [3]: significantly protected mice from colitis
- body weight loss after treatment in anti-CD40 colitis (IBD) model [3]: no significant body weight loss
- CL [4]: 12 mL/min/kg
- Vss [4]: 1.1 L/kg
- T1/2 [4]: 4.3 h

Compound: [2H]C([2H])([2H])NC(=O)c1nnc(NC(=O)C2CC2)cc1Nc1cccc(-c2ncn(C)n2)c1OC([2H])([2H])[2H] [Compound 4, 6-(cyclopropanecarboxamido)-4-((2-(methoxy-d3)-3-(1-methyl-1H-1,2,4-triazol-3-yl)phenyl)amino)-N-(methyl-d3)pyridazine-3-carboxamide]
- IC50 [1]: 11 nM

Compound: CNC(=O)c1nnc(NC(=O)[C@@H]2CC2(F)F)cc1Nc1cccc(-c2ncn(C)n2)c1OC [Compound 6, (S)-6-(2,2-difluorocyclopropane-1-carboxamido)-4-((2-methoxy-3-(1-methyl-1H-1,2,4-triazol-3-yl)phenyl)amino)-N-methylpyridazine-3-carboxamide]
- IC50 [1]: 47 nM

Compound: [2H]C([2H])([2H])NC(=O)c1nnc(NC(=O)[C@@H]2CC2(F)F)cc1Nc1cccc(-c2ncn(C)n2)c1OC [Compound 5, (S)-6-(2,2-difluorocyclopropane-1-carboxamido)-4-((2-methoxy-3-(1-methyl-1H-1,2,4-triazol-3-yl)phenyl)amino)-N-(methyl-d3)pyridazine-3-carboxamide]
- IC50 [1]: 52 nM
- body weight loss after treatment in anti-CD40 colitis (IBD) model [3]: no significant body weight loss

Compound: [2H]C([2H])([2H])NC(=O)c1nnc(NC(=O)[C@H]2CC2(F)F)cc1Nc1cccc(-c2ncn(C)n2)c1OC [Compound 7, (R)-6-(2,2-difluorocyclopropane-1-carboxamido)-4-((2-methoxy-3-(1-methyl-1H-1,2,4-triazol-3-yl)phenyl)amino)-N-(methyl-d3)pyridazine-3-carboxamide]
- IC50 [1]: 74 nM

Compound: [2H]C([2H])([2H])NC(=O)c1nnc(NC(=O)C2CC2)cc1Nc1cccc(-c2ncn(C([2H])([2H])[2H])n2)c1OC [Compound 1, 6-(cyclopropanecarboxamido)-4-((2-methoxy-3-(1-(methyl-d3)-1H-1,2,4-triazol-3-yl)phenyl)amino)-N-(methyl-d3)pyridazine-3-carboxamide]
- IC50 [1]: 16 nM

Compound: [2H]C([2H])([2H])n1cnc(-c2cccc(Nc3cc(NC(=O)C4CC4)nnc3C(=O)NC)c2OC)n1 [Compound 2, 6-(cyclopropanecarboxamido)-4-((2-methoxy-3-(1-(methyl-d3)-1H-1,2,4-triazol-3-yl)phenyl)amino)-N-methylpyridazine-3-carboxamide]
- IC50 [1]: 13 nM
- body weight loss after treatment in anti-CD40 colitis (IBD) model [3]: no significant body weight loss

Compound: [2H]C([2H])([2H])NC(=O)c1nnc(NC(=O)C2CC2)cc1Nc1cccc(-c2ncn(C)n2)c1OC [BMS-986165, reference compound]
- IC50 [1]: 17 nM
- F [2]: 46%
- AUClast [2]: 2828 ng·h/mL
- Cmax [2]: 632 ng/mL
- Spleen weight, Mean ([3]; 5 mg/kg oral twice daily): 0.036 g
- protection from colitis (body weight loss and spleen enlargement) versus vehicle group [3]: significantly protected mice from colitis
- CL [4]: 14 mL/min/kg
- Vss [4]: 1.5 L/kg
- T1/2 [4]: 3.3 h
